Experimental data as given in PubChem BioAssay (NCI).
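The concentration for 50% growth inhibition is given as GI50. TGI: total growth inhibition.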

What was measured:
Assay in all cases: growth of human tumour cells (NCI), 384-well format
[1] = tested on: MDA-MB-435 melanoma
[2] = tested on: NCI-H460 NSCLC
[3] = tested on: RPMI-8226 leukemia
[4] = tested on: M14 melanoma
[5] = tested on: UACC-257 melanoma
[6] = tested on: SR leukemia
[7] = tested on: SF-268 CNS
[8] = tested on: OVCAR-3 ovarian
[9] = tested on: HCC-2998 colon
[10] = tested on: HCT-116 colon
[11] = tested on: T-47D breast
[12] = tested on: OVCAR-4 ovarian
[13] = tested on: IGROV1 ovarian
[14] = tested on: OVCAR-5 ovarian
[15] = tested on: NCI-H226 lung
[16] = tested on: ACHN renal
[17] = tested on: MOLT-4 leukemia
[18] = tested on: TK-10 renal
[19] = tested on: A549 NSCLC
[20] = tested on: SW-620 colon
[21] = tested on: MDA-MB-468 breast
[22] = tested on: SNB-75 CNS
[23] = tested on: HCT-15 colon
[24] = tested on: DU-145 prostate
[25] = tested on: BT-549 breast
[26] = tested on: HOP-92 NSCLC
[27] = tested on: RXF 393 renal
[28] = tested on: SK-OV-3 ovarian
[29] = tested on: UO-31 renal
[30] = tested on: SK-MEL-5 melanoma
[31] = tested on: NCI/ADR-RES ovarian
[32] = tested on: 786-0 renal
[33] = tested on: NCI-H23 lung
[34] = tested on: COLO 205 colon
[35] = tested on: K-562 leukemia
[36] = tested on: PC-3 prostate
[37] = tested on: LOX IMVI melanoma
[38] = tested on: SF-295 CNS
[39] = tested on: SF-539 CNS
[40] = tested on: NCI-H322M lung
[41] = tested on: CAKI-1 renal
[42] = tested on: KM12 colon
[43] = tested on: SK-MEL-28 melanoma
[44] = tested on: HOP-62 NSCLC
[45] = tested on: U251 glioblastoma
[46] = tested on: SN12C renal
[47] = tested on: HT29 colon

## CC[C@H](NC(=O)[C@H](CS(=O)(=O)CC1CC1)N[C@@H](c1ccc(F)cc1)C(F)(F)F)C(=O)C(=O)NC1CC1
[1]
  GI50: > 100 µM
  TGI: > 100 µM
[2]
  GI50: > 100 µM
  TGI: > 100 µM
[3]
  GI50: 77.2 µM
  TGI: > 100 µM
[4]
  GI50: > 100 µM
  TGI: > 100 µM
[5]
  GI50: > 100 µM
  TGI: > 100 µM
[6]
  GI50: 19.3 µM
  TGI: 74.5 µM
[7]
  GI50: > 51.4 µM
  TGI: > 93.9 µM
[8]
  GI50: > 100 µM
  TGI: > 100 µM
[9]
  GI50: > 100 µM
  TGI: > 100 µM
[10]
  GI50: > 100 µM
  TGI: > 100 µM
[11]
  GI50: > 59.9 µM
  TGI: > 100 µM
[12]
  GI50: > 100 µM
  TGI: > 100 µM
[13]
  GI50: > 100 µM
  TGI: > 100 µM
[14]
  GI50: > 100 µM
  TGI: > 100 µM
[15]
  GI50: > 71.7 µM
  TGI: > 100 µM
[16]
  GI50: > 100 µM
  TGI: > 100 µM
[17]
  GI50: 29.5 µM
  TGI: > 100 µM
[18]
  GI50: > 100 µM
  TGI: > 100 µM
[19]
  GI50: > 100 µM
  TGI: > 100 µM
[20]
  GI50: > 100 µM
  TGI: > 100 µM
[21]
  GI50: 22.8 µM
  TGI: 67.5 µM
[22]
  GI50: > 89.5 µM
  TGI: > 100 µM
[23]
  GI50: > 100 µM
  TGI: > 100 µM
[24]
  GI50: > 100 µM
  TGI: > 100 µM
[25]
  GI50: > 100 µM
  TGI: > 100 µM
[26]
  GI50: > 100 µM
  TGI: > 100 µM
[27]
  GI50: > 88.2 µM
  TGI: > 100 µM
[28]
  GI50: > 100 µM
  TGI: > 100 µM
[29]
  GI50: > 100 µM
  TGI: > 100 µM
[30]
  GI50: > 100 µM
  TGI: > 100 µM
[31]
  GI50: > 100 µM
  TGI: > 100 µM
[32]
  GI50: > 100 µM
  TGI: > 100 µM
[33]
  GI50: > 100 µM
  TGI: > 100 µM
[34]
  GI50: > 100 µM
  TGI: > 100 µM
[35]
  GI50: > 93.1 µM
  TGI: > 100 µM
[36]
  GI50: > 100 µM
  TGI: > 100 µM
[37]
  GI50: > 100 µM
  TGI: > 100 µM
[38]
  GI50: > 100 µM
  TGI: > 100 µM
[39]
  GI50: > 100 µM
  TGI: > 100 µM
[40]
  GI50: > 100 µM
  TGI: > 100 µM
[41]
  GI50: > 100 µM
  TGI: > 100 µM
[42]
  GI50: > 100 µM
  TGI: > 100 µM
[43]
  GI50: > 100 µM
  TGI: > 100 µM
[44]
  GI50: 98.8 µM
  TGI: > 100 µM
[45]
  GI50: > 100 µM
  TGI: > 100 µM
[46]
  GI50: > 100 µM
  TGI: > 100 µM
[47]
  GI50: > 100 µM
  TGI: > 100 µM
